Patent US20110251379A1, “COMPOUNDS USEFUL FOR TREATING NEURODEGENERATIVE DISORDERS” (Satori Pharmaceuticals, Inc., priority 2010, published 2011)
Read-outs that look alike come from different tables or passages of the source.

How the values were obtained:
Type in all cases: cell-based
[1] = system: Aβ-40; assay: MSD Human (6E10) Ab 3-PLEX elisa, conditioned media of 2B7 cells: Aβ-40; conditions: for IC50: Aβ-40 (superscript b); for inhibition at 20 µM: Aβ-40, 20 μM
Method in brief: (§1)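 Each Aβ peptide was measured by MSD 6E10 3-plex electrochemiluminescence against its own seven-point standard curve. Samples were conditioned media from 2B7 cells exposed to compound for 5 hours at 37° C with 1% DMSO. Percent-vehicle values were fitted to a 4-parameter curve to give IC50.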

[2] = system: Aβ-42; assay: MSD Human (6E10) Ab 3-PLEX elisa, conditioned media of 2B7 cells: Aβ-42; conditions: for IC50: Aβ-42 (superscript c); for inhibition at 20 µM: Aβ-42, 20 μM
Method in brief: as §1

[3] = system: Aβ-38; assay: MSD Human (6E10) Ab 3-PLEX elisa, conditioned media of 2B7 cells: Aβ-38; conditions: for IC50: Aβ-38 (superscript a); for inhibition at 20 µM: Aβ-38, 20 μM
Method in brief: as §1

[4] = Homo sapiens, read-out: 50% reduction value
[5] = Homo sapiens, read-out: IC50 range

Structure (SMILES) | IC50 [1, 4] [nM] | IC50 [2, 4] [nM] | IC50 [2, 5] [nM] | IC50 [3, 4] [nM] | inhibition at 20 µM ([1]; Homo sapiens) [%] | inhibition at 20 µM ([2]; Homo sapiens) [%] | IC50 [3, 5] [nM] | further results
CO[C@@H](C1C[C@@H](C)[C@H]2C(O1)[C@H](O)[C@@]1(C)C3CC[C@H]4C(C)(C)C(OC(=O)NC5CNC5)CC[C@@]45C[C@@]35CC[C@]21C)C(C)(C)O (stereo partly shown) | 1000 to 10000 | < 1000 | < 1000 | < 1000 | – | – | – | IC50 [1, 5]: 1000 to 10000 nM
CCO[C@@H](C1C[C@@H](C)[C@H]2C(O1)[C@H](O)[C@@]1(C)C3CC[C@H]4C(C)(C)C(O[C@H]5CN(CCC(=O)O)CCO5)CC[C@@]45C[C@@]35CC[C@]21C)C(C)(C)O (stereo partly shown) | 1000 to 10000 | < 1000 | < 1000 | < 1000 | – | – | – | –
C[C@@H]1CC(COC(=O)N(C)C)OC2[C@H]1[C@@]1(C)CC[C@@]34C[C@@]35CC[C@H](O)C(C)(C)[C@@H]5CCC4[C@]1(C)[C@H]2O (stereo partly shown) | > 10000 | – | – | – | 25 to 75 | 25 to 75 | – | inhibition at 4 µM ([3]; Homo sapiens, Aβ-38, 4 μM): 25 to 75%
CNC(=O)O[C@@H]([C@H]1C[C@@H](C)[C@H]2[C@H](O1)[C@H](O)[C@@]1(C)C3CC[C@H]4C(C)(C)[C@@H](O)CC[C@@]45C[C@@]35CC[C@]21C)C(C)(C)O (stereo partly shown) | – | – | – | – | 25 to 75 | 25 to 75 | – | inhibition at 20 µM ([3]; Homo sapiens): 25 to 75%
CC(C)[C@@H](OC(=O)N1CCC1)C1C[C@@H](C)[C@H]2C(O1)[C@H](O)[C@@]1(C)C3CC[C@H]4C(C)(C)C(OC(=O)N5CCN(S(C)(=O)=O)CC5)CC[C@@]45C[C@@]35CC[C@]21C (stereo partly shown) | 1000 to 10000 | < 1000 | < 1000 | < 1000 | – | – | < 1000 | IC50 [1, 5]: 1000 to 10000 nM
CO[C@H](C(C)C)C1C[C@@H](C)[C@H]2C(O1)[C@H](O)[C@@]1(C)C3CC[C@H]4C(C)(C)[C@@H](O)CC[C@@]45C[C@@]35CC[C@]21C (stereo partly shown) | > 10000 | – | – | 1000 to 10000 | – | 25 to 75 | – | –
CO[C@@H](C1C[C@@H](C)[C@H]2C(O1)[C@H](O)[C@@]1(C)C3CC[C@H]4C(C)(C)[C@@H](O)CC[C@@]45C[C@@]35CC[C@]21C)C(C)(C)O (stereo partly shown) | – | < 1000 | – | < 1000 | 25 to 75 | – | – | –
C[C@@H]1CC(CN(C)[C@@H](C)C(=O)O)OC2[C@H]1[C@@]1(C)CC[C@@]34C[C@@]35CC[C@H](O[C@H]3CN(C(=O)CC6CC6)CCO3)C(C)(C)[C@@H]5CCC4[C@]1(C)[C@H]2O (stereo partly shown) [drawing 1155] | – | – | 1000 to 10000 | – | – | – | < 1000 | inhibition at 100 µM ([1]; Homo sapiens, Aβ-40, 100 μM): 25 to 75%
CCO[C@@H](C1C[C@@H](C)[C@H]2C(O1)[C@H](O)[C@@]1(C)C3CC[C@H]4C(C)(C)C(O[C@H]5CN(CCCC(=O)O)CCO5)CC[C@@]45C[C@@]35CC[C@]21C)C(C)(C)O (stereo partly shown) | 1000 to 10000 | < 1000 | < 1000 | 1000 to 10000 | – | – | 1000 to 10000 | –
CCO[C@@H]([C@H]1C[C@@H](C)[C@H]2[C@H](O1)[C@H](O)[C@@]1(C)[C@@H]3CC[C@H]4C(C)(C)[C@@H](OC5CN(C)CCO5)CC[C@@]45C[C@@]35CC[C@]21C)C(C)(C)O (stereo partly shown) | 1000 to 10000 | < 1000 | < 1000 | < 1000 | – | – | < 1000 | IC50 [1, 5]: 1000 to 10000 nM
CC(C)CO[C@@H](C1C[C@@H](C)[C@H]2C(O1)[C@H](O)[C@@]1(C)C3CC[C@H]4C(C)(C)C(OC(=O)NC5CN(C=O)C5)CC[C@@]45C[C@@]35CC[C@]21C)C(C)(C)O (stereo partly shown) | 1000 to 10000 | < 1000 | 1000 to 10000 | 1000 to 10000 | – | – | – | IC50 [1, 5]: 1000 to 10000 nM
CC(=O)O[C@@H]([C@H]1C[C@@H](C)C2C(O1)[C@H](O)[C@@]1(C)[C@@H]3CC[C@H]4C(C)(C)[C@@H](OC(=O)c5cccnc5)CC[C@@]45C[C@@]35CC[C@]21C)C(C)(C)O (stereo partly shown) [drawing 1200] | > 10000 | < 1000 | < 1000 | < 1000 | – | – | < 1000 | –
CC(=O)N(Cc1cc(F)cc(F)c1)CC1CC(C)C2C(O1)C(O)C1(C)C3CCC4C(C)(C)C(O)CCC45CC35CCC21C (stereo not shown) [drawing 1211] | – | – | – | – | – | – | – | IC50 ([1]; read-out: 50% reduction value): > 10000 nM; IC50 ([2]; read-out: 50% reduction value): 1000 to 10000 nM; IC50 ([3]; read-out: 50% reduction value): 1000 to 10000 nM
C[C@@H]1C[C@](C)(CO)OC2[C@H]1[C@@]1(C)CC[C@@]34C[C@@]35CC[C@H](O)C(C)(C)[C@@H]5CCC4[C@]1(C)[C@H]2O (stereo partly shown) | – | – | – | – | < 25 | < 25 | – | inhibition at 20 µM ([3]; Homo sapiens): 25 to 75%
CC(=O)OCC1C[C@@H](C)C2C(O1)[C@H](O)[C@@]1(C)[C@@H]3CC[C@H]4C(C)(C)[C@@H](O)CC[C@@]45C[C@@]35CC[C@]21C (stereo partly shown) [drawing 1161] | – | – | – | – | 25 to 75 | 25 to 75 | – | inhibition at 20 µM ([3]; Homo sapiens): 25 to 75%
C[C@@H]1CC(CNC(=O)N(C)C)OC2[C@H]1[C@@]1(C)CC[C@@]34C[C@@]35CC[C@H](O)C(C)(C)[C@@H]5CCC4[C@]1(C)[C@H]2O (stereo partly shown) | – | – | – | > 10000 | 25 to 75 | < 25 | – | –
